For orientation: IC50 means the concentration at which inhibition is half-maximal.

In US10183950B2, “Thienopyrimidine inhibitors of atypical protein kinase C” (Cancer Research Technology Limited, priority 2011, dated 2019) one finds IC50 data, which are given here for 31 compounds.

For the assay, the target named is T1, full-length human PKCι (Homo sapiens, UniProt P41743).
T1 construct: Recombinant, full-length human PKCι expressed in Sf21 insect cells is also commercially available; purchased; host or cells: Sf21 insect cells
T1 sequence (P41743 1-596): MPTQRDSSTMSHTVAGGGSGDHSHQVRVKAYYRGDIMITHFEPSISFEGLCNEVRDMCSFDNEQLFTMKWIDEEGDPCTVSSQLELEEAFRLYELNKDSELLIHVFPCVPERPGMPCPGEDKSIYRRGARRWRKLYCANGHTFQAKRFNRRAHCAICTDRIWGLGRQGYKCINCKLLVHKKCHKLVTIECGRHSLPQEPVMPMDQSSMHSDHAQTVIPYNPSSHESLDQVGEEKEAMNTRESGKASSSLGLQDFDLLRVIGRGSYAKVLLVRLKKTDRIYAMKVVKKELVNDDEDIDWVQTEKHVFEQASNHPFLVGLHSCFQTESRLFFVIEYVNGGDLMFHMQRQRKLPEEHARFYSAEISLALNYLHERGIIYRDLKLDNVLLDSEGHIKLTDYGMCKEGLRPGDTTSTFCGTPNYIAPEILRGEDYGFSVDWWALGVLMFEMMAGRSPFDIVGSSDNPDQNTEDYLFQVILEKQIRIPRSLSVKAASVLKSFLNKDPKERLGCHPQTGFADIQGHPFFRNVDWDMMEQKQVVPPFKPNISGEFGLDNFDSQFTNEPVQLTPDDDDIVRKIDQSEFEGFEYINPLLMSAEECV
The experiment in a line: PKCι IC50 IMAP fluorescence polarisation assay, full-length enzyme. Particulars: full length PKCi at 15 μM ATP; read-out: IC50 in IMAP assay against full length PKCi. It is filed as biochemical. (In general: Fluorescence polarisation rises when a labelled molecule tumbles more slowly, as on binding a larger partner.)
Consider `C[C@H](O)C#Cc1csc2c(NC[C@@H](N)Cc3ccccc3)nc(-c3ccncc3F)nc12` [compound 508, (S)-4-[4-((S)-2-Amino-3-phenyl-propylamino)-2-(3-fluoro-pyridin-4-yl)-thieno[3,2-d]pyrimidin-7-yl]-but-3-yn-2-ol], for which the IC50 was in the range of 100 to 1000 nM.

Regarding `CC(C)(O)C#Cc1csc2c(NC[C@@H](N)Cc3ccccc3)nc(-c3ccncc3F)nc12` [compound 509, 4-[4-((S)-2-Amino-3-phenyl-propylamino)-2-(3-fluoro-pyridin-4-yl)-thieno[3,2-d]pyrimidin-7-yl]-2-methyl-but-3-yn-2-ol], the IC50 was 100 to 1000 nM.

Regarding `CC(C)(O)C#Cc1csc2c(NC[C@@H](N)Cc3ccccc3)nc(-c3ccncc3)nc12` [compound 510, 4-[4-((S)-2-Amino-3-phenyl-propylamino)-2-pyridin-4-yl-thieno[3,2-d]pyrimidin-7-yl]-2-methyl-but-3-yn-2-ol], the IC50 was < 100 nM. With `CC(C)(C)C#Cc1csc2c(NC[C@@H](N)Cc3ccccc3)nc(-c3ccncc3)nc12` [compound 511, (S)-N*1*-[7-(3,3-Dimethyl-but-1-ynyl)-2-pyridin-4-yl-thieno[3,2-d]pyrimidin-4-yl]-3-phenyl-propane-1,2-diamine], the concentration for half-maximal inhibition (IC50) was in the range of 1000 to 10000 nM. As for `N[C@H](CNc1nc(-c2ccncc2)nc2c(C#CC3CC3)csc12)Cc1ccccc1` [compound 512, (S)-N*1*-(7-Cyclopropylethynyl-2-pyridin-4-yl-thieno[3,2-d]pyrimidin-4-yl)-3-phenyl-propane-1,2-diamine], the half-maximal inhibitory concentration (IC50) was < 100 nM. For `CC(O)C#Cc1csc2c(NC[C@@H](N)Cc3ccccc3)nc(-c3ccncc3)nc12` (stereo partly drawn) [compound 513, 4-[4-((S)-2-Amino-3-phenyl-propylamino)-2-pyridin-4-yl-thieno[3,2-d]pyrimidin-7-yl]-but-3-yn-2-ol] the value was < 100 nM.

For `CC(C)(O)C#Cc1csc2c(N[C@@H]3CCNC3)nc(-c3ccncc3)nc12` [compound 514, 2-Methyl-4-[2-pyridin-4-yl-4-((R)-pyrrolidin-3-ylamino)-thieno[3,2-d]pyrimidin-7-yl]-but-3-yn-2-ol], the half-inhibitory concentration (IC50) lay within 100 to 1000 nM. In the case of `N[C@H](CNc1nc(-c2ccncc2)nc2c(C#CCO)csc12)Cc1ccccc1` [compound 515, 3-[4-((S)-2-Amino-3-phenyl-propylamino)-2-pyridin-4-yl-thieno[3,2-d]pyrimidin-7-yl]-prop-2-yn-1-ol] it was < 100 nM. As for `CC(C)(N)C#Cc1csc2c(NC[C@@H](N)Cc3ccccc3)nc(-c3ccncc3)nc12` [compound 516, (S)-N*1*-[7-(3-Amino-3-methyl-but-1-ynyl)-2-pyridin-4-yl-thieno[3,2-d]pyrimidin-4-yl]-3-phenyl-propane-1,2-diamine], the IC50 fell in the range of 1000 to 10000 nM. For `C[C@H](O)C#Cc1csc2c(N[C@@H]3CCNC3)nc(-c3ccncc3)nc12` [compound 517, (S)-4-[2-Pyridin-4-yl-4-((R)-pyrrolidin-3-ylamino)-thieno[3,2-d]pyrimidin-7-yl]-but-3-yn-2-ol] the value was < 100 nM. In the case of `CC(C)C#Cc1csc2c(NC[C@@H](N)Cc3ccccc3)nc(-c3ccncc3)nc12` [compound 518, (S)-N*1*-[7-(3-Methyl-but-1-ynyl)-2-pyridin-4-yl-thieno[3,2-d]pyrimidin-4-yl]-3-phenyl-propane-1,2-diamine] it was 100 to 1000 nM; in that of `CC(C)(O)C#Cc1csc2c(N[C@@H]3CCNC3)nc(-c3ccncc3F)nc12` [compound 519, 4-[2-(3-Fluoro-pyridin-4-yl)-4-((R)-pyrrolidin-3-ylamino)-thieno[3,2-d]pyrimidin-7-yl]-2-methyl-but-3-yn-2-ol], 1000 to 10000 nM. For `COC(C)(C)C#Cc1csc2c(NC[C@@H](N)Cc3ccccc3)nc(-c3ccncc3)nc12` [compound 520, (S)-N*1*-[7-(3-Methoxy-3-methyl-but-1-ynyl)-2-pyridin-4-yl-thieno[3,2-d]pyrimidin-4-yl]-3-phenyl-propane-1,2-diamine] the value was 100 to 1000 nM; for `CC[C@H](O)C#Cc1csc2c(NC[C@@H](N)Cc3ccccc3)nc(-c3ccncc3)nc12` [compound 521], < 100 nM.

For `CCC[C@@H](C)[C@H](O)C#Cc1csc2c(NC[C@@H](N)Cc3ccccc3)nc(-c3ccncc3)nc12` [compound 522, (S)-1-[4-((S)-2-Amino-3-phenyl-propylamino)-2-pyridin-4-yl-thieno[3,2-d]pyrimidin-7-yl]-4-methyl-hept-1-yn-3-ol], the IC50 was in the range of 1000 to 10000 nM. For `CC[C@](C)(O)C#Cc1csc2c(NC[C@@H](N)Cc3ccccc3)nc(-c3ccncc3)nc12` [compound 523, (S)-1-[4-((S)-2-Amino-3-phenyl-propylamino)-2-pyridin-4-yl-thieno[3,2-d]pyrimidin-7-yl]-3-methyl-pent-1-yn-3-ol] the value was 100 to 1000 nM; for `CC(C)[C@](C)(O)C#Cc1csc2c(NC[C@@H](N)Cc3ccccc3)nc(-c3ccncc3)nc12` [compound 524, (S)-1-[4-((S)-2-Amino-3-phenyl-propylamino)-2-pyridin-4-yl-thieno[3,2-d]pyrimidin-7-yl]-3,4-dimethyl-pent-1-yn-3-ol], 1000 to 10000 nM. Turning to `CCC(O)(C#Cc1csc2c(NC[C@@H](N)Cc3ccccc3)nc(-c3ccncc3)nc12)CC` [compound 525, 1-[4-(2-Amino-3-phenyl-propylamino)-2-pyridin-4-yl-thieno[3,2-d]pyrimidin-7-yl]-3-ethyl-pent-1-yn-3-ol], the IC50 lay within 1000 to 10000 nM. As for `CCC[C@H](O)C#Cc1csc2c(NC[C@@H](N)Cc3ccccc3)nc(-c3ccncc3)nc12` [compound 526, (S)-1-[4-((S)-2-Amino-3-phenyl-propylamino)-2-pyridin-4-yl-thieno[3,2-d]pyrimidin-7-yl]-hex-1-yn-3-ol], the IC50 lay within 100 to 1000 nM. Take `C[C@H](O)C#Cc1csc2c(N[C@@H]3CCNC3)nc(-c3ccncc3F)nc12` [compound 527, (S)-4-[2-(3-Fluoro-pyridin-4-yl)-4-((R)-pyrrolidin-3-ylamino)-thieno[3,2-d]pyrimidin-7-yl]-but-3-yn-2-ol]: the IC50 is 10000 to 40000 nM. With `N[C@H](CNc1nc(-c2ccncc2)nc2c(C#CC3(O)CCCC3)csc12)Cc1ccccc1` [compound 528], the concentration for half-maximal inhibition (IC50) was < 100 nM. Take `N[C@H](CNc1nc(-c2ccncc2)nc2c(C#Cc3ccccn3)csc12)Cc1ccccc1` [compound 529, (S)-3-Phenyl-N*1*-(2-pyridin-4-yl-7-pyridin-2-ylethynyl-thieno[3,2-d]pyrimidin-4-yl)-propane-1,2-diamine]: the IC50 lay within 100 to 1000 nM. For `N[C@H](CNc1nc(-c2ccncc2)nc2c(C#Cc3ccccc3F)csc12)Cc1ccccc1` [compound 530, (S)-N*1*-[7-(2-Fluoro-phenylethynyl)-2-pyridin-4-yl-thieno[3,2-d]pyrimidin-4-yl]-3-phenyl-propane-1,2-diamine] the value was 100 to 1000 nM. Take `N[C@H](CNc1nc(-c2ccncc2)nc2c(C#CCCO)csc12)Cc1ccccc1` [compound 531, 4-[4-((S)-2-Amino-3-phenyl-propylamino)-2-pyridin-4-yl-thieno[3,2-d]pyrimidin-7-yl]-but-3-yn-1-ol]: the half-inhibitory concentration (IC50) was < 100 nM. In the case of `N[C@H](CNc1nc(-c2ccncc2)nc2c(C#CC3(O)CC3)csc12)Cc1ccccc1` [compound 532, 1-[4-((S)-2-Amino-3-phenyl-propylamino)-2-pyridin-4-yl-thieno[3,2-d]pyrimidin-7-ylethynyl]-cyclopropanol] it was < 100 nM; in that of `C[C@H](O)C#Cc1csc2c(NC[C@@H](N)Cc3ccccc3)nc(-c3ccncc3)nc12` [compound 533, (S)-4-[4-((S)-2-Amino-3-phenyl-propylamino)-2-pyridin-4-yl-thieno[3,2-d]pyrimidin-7-yl]-but-3-yn-2-ol], < 100 nM. For `C[C@@H](O)C#Cc1csc2c(NC[C@@H](N)Cc3ccccc3)nc(-c3ccncc3)nc12` [compound 534, (R)-4-[4-((S)-2-Amino-3-phenyl-propylamino)-2-pyridin-4-yl-thieno[3,2-d]pyrimidin-7-yl]-but-3-yn-2-ol] the value was < 100 nM; for `N[C@H](CNc1nc(-c2ccncc2)nc2c(C#CCCCO)csc12)Cc1ccccc1` [compound 535, 5-[4-((S)-2-Amino-3-phenyl-propylamino)-2-pyridin-4-yl-thieno[3,2-d]pyrimidin-7-yl]-pent-4-yn-1-ol], 1000 to 10000 nM; for `CC(O)CC#Cc1csc2c(NC[C@@H](N)Cc3ccccc3)nc(-c3ccncc3)nc12` (stereo partly drawn) [compound 536, 5-[4-((S)-2-Amino-3-phenyl-propylamino)-2-pyridin-4-yl-thieno[3,2-d]pyrimidin-7-yl]-pent-4-yn-2-ol], < 100 nM. With `CC(C)(O)CC#Cc1csc2c(NC[C@@H](N)Cc3ccccc3)nc(-c3ccncc3)nc12` [compound 537, 5-[4-((S)-2-Amino-3-phenyl-propylamino)-2-pyridin-4-yl-thieno[3,2-d]pyrimidin-7-yl]-2-methyl-pent-4-yn-2-ol], the half-inhibitory concentration (IC50) was 100 to 1000 nM. In the case of `CNCC#Cc1csc2c(NC[C@@H](N)Cc3ccccc3)nc(-c3ccncc3)nc12` [compound 538, (S)-N*1*-[7-(3-Methylamino-prop-1-ynyl)-2-pyridin-4-yl-thieno[3,2-d]pyrimidin-4-yl]-3-phenyl-propane-1,2-diamine] it was 100 to 1000 nM.
